Common to all, as to assay: Pre-emergent herbicidal activity (Table A)
Type in all cases: in vivo

In assay [1] the test system is Annual Bluegrass. The following applies: pre-emergence, Anbg, 11.2 kg/ha, 10-14 days, read-out: herbicidal rating (% inhibition). How it is done: (§1) Tables A and B summarize results of tests conducted to determine the pre-emergent herbicidal activity of the compounds of this invention. The herbicidal ratings used in Tables A and B were assigned according to a scale based on the percent inhibition of each plant species. The herbicide rating symbols in Tables A and B are defined as follows: […]
(§2) One set of pre-emergent tests was conducted as follows:
(§3) Topsoil was placed in a pan and compacted to a depth of 0.95 to 1.27 cm. from the top of the pan. A predetermined number of seeds of each of several monocotyledonous and dicotyledonous annual plant species and/or vegetative propagules of various perennial plant species were placed on top of the soil. The soil required to level fill a pan after seeding or adding vegetative propagules was weighed into another pan. A known amount of the test compound dissolved or suspended in an organic solvent or water and applied in acetone or water as a carrier was thoroughly mixed with this cover soil, and the herbicide/soil mixture was used as a cover layer for the previously prepared pan. In Table A below the amounts of active ingredient were all equivalent to an application rate of 11.2 kilograms/hectare (kg/ha). After treatment, the pans were moved to a greenhouse bench where they were watered as needed to give adequate moisture for germination and growth.
(§4) Approximately 10-14 days (usually 11 days) after planting and treating, the plants were observed and the results recorded.
(§5) The plant species usually regarded as weeds which were utilized in one set of pre-emergent activity tests, the data for which are shown in Table A, are identified by letter headings printed diagonally above the columns according to the following legend: […]

Assay [2] has as its system Indian Mustard. The following applies: Brassica juncea, pre-emergence, Inmu, 11.2 kg/ha, 10-14 days, read-out: herbicidal rating (% inhibition). How it is done: as §1, §2, §3, §4, §5
For assay [3], the system named is Seedling Johnsongrass. The following applies: Sorghum halepense, pre-emergence, Sejg, 11.2 kg/ha, 10-14 days, read-out: herbicidal rating (% inhibition). Here is the method: as §1, §2, §3, §4, §5
Assay [4] has as its system Wild Buckwheat. The following applies: Fallopia convolvulus, pre-emergence, Wibw, 11.2 kg/ha, 10-14 days, read-out: herbicidal rating (% inhibition). How it is done:
as §1, §2, §3, §4, §5

In assay [5] the test system is Barnyardgrass. The following applies: Echinochloa crus-galli, pre-emergence, Bygr, 11.2 kg/ha, 10-14 days, read-out: herbicidal rating (% inhibition). The procedure, abridged:
(§6)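 Seeds or perennial propagules set on compacted topsoil, then covered with soil mixed with a known amount of test compound applied in acetone or water carrier. Ratings assigned on a scale based on percent inhibition of each species.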

Assay [6] relates to Cocklebur. The following applies: Xanthium strumarium, pre-emergence, Cobu, 11.2 kg/ha, 10-14 days, read-out: herbicidal rating (% inhibition). The procedure, abridged: as §6
For assay [7], the system named is Downy Brome. The following applies: Bromus tectorum, pre-emergence, Dobr, 11.2 kg/ha, 10-14 days, read-out: herbicidal rating (% inhibition). The procedure, abridged:
as §6

Assay [8] has as its system Morningglory. The following applies: Ipomoea, pre-emergence, Mogl, 11.2 kg/ha, 10-14 days, read-out: herbicidal rating (% inhibition). In short, it runs like this: as §6
Assay [9] deals with Velvetleaf. The following applies: Abutilon theophrasti, pre-emergence, Vele, 11.2 kg/ha, 10-14 days, read-out: herbicidal rating (% inhibition). The procedure, abridged:
as §6

Assay [10] concerns Yellow Nutsedge. The following applies: Cyperus, pre-emergence, Yens, 11.2 kg/ha, 10-14 days, read-out: herbicidal rating (% inhibition). In short, it runs like this: as §6

In the case of `COC(=O)c1c(OC)nc(C(F)(F)F)c(-c2ncco2)c1CC(C)C` [Compound 130, 3-pyridinecarboxylic acid, 2-methoxy-4-(2-methylpropyl)-5-(2-oxazolyl)-6-(trifluoromethyl)-, methyl ester], the inhibition at 11200 g/ha in assay [1] fell in the range of 75 to 100%; in assay [2], 75 to 100%; in assay [3], 75 to 100%; in assay [4], 75 to 100%; in assay [5] it was 75 to 100%; in [6], 25 to 49%. The inhibition at 11200 g/ha in [7], in assay [8], in [9] and in [10] was 75 to 100% throughout.
For the compound `COC(=O)c1c(OC)nc(C(F)(F)F)c(C(Cl)=NCCCl)c1CC(C)C` [Compound 95, 3-pyridinecarboxylic acid, 5-[(chloro[2-chloroethyl)imino)methyl]-2-methoxy-4-(2-methylpropyl)-6-(trifluoromethyl)-, methyl ester], the inhibition at 11200 g/ha in [1] lay in the range of 75 to 100%; in assay [2] it was 50 to 74%; in assay [3] it was 75 to 100%; in assay [4], 75 to 100%; in assay [5], 75 to 100%; in assay [6] it was 0 to 24%. In addition, the inhibition at 11200 g/ha lay within 25 to 49% in assay [7], 0 to 24% in [8], 50 to 74% in assay [9] and 0 to 24% in assay [10].
With `CCOC=NNC(=O)c1c(C(F)(F)F)nc(OC)c(C(=O)OC)c1CC(C)C` [Compound 124, 3,5-pyridinedicarboxylic acid, 2-methoxy-4-(2-methylpropyl)-6-(trifluoromethyl)-, 3-methyl ester, 5-(ethoxymethylene)hydrazide], the inhibition at 11200 g/ha in assay [1], in assay [2], in assay [3], in assay [4], in assay [5] and in assay [6] was 0 to 24% in each case. For the same compound, the inhibition at 11200 g/ha in [7], in [8], in assay [9] and in assay [10] was 0 to 24% each time.
Turning to `COC(=O)c1c(OC)nc(C(F)(F)F)c(C2SCCCS2)c1CC(C)C` [Compound 94, 3-pyridinecarboxylic acid, 5-(1,3-dithian-2-yl)-2-methoxy-4-(2-methylpropyl)-6-(trifluoromethyl)-, methyl ester], the inhibition at 11200 g/ha is 75 to 100% in assay [1]; 75 to 100% in [2]; 75 to 100% in [3]; 75 to 100% in assay [4]; 75 to 100% in assay [5]; 25 to 49% in [6]. For the same compound, the inhibition at 11200 g/ha in [7] was 50 to 74%; in assay [8], 75 to 100%; in [9], 75 to 100%; in [10] it was 0 to 24%.
On to `COC(=O)c1c(OC)nc(C(F)(F)F)c(-c2nnco2)c1CC(C)C` [Compound 125, 3-pyridinecarboxylic acid, 2-methoxy-4-(2-methylpropyl)-5-(1,3,4-oxadiazo1-2-yl)-6-(trifluoromethyl)-, methyl ester], for which the inhibition at 11200 g/ha in [1] fell in the range of 75 to 100%; in [2], 75 to 100%; in assay [3], 75 to 100%; in assay [4], 75 to 100%; in assay [5], 75 to 100%; in assay [6], 0 to 24%. In addition, the inhibition at 11200 g/ha in [7] was 75 to 100%; in [8], 75 to 100%; in [9], 75 to 100%; in [10], 0 to 24%.
Consider `COC(=O)c1c(OC(Cl)(Cl)Cl)nc(C(F)(F)F)c(C(=O)OC)c1CC(C)C` [Compound 96, 3,5-pyridinedicarboxylic acid, 4-(2-methylpropyl)-2-(trichloromethoxy)-6-(trifluoromethyl)-, dimethyl ester], for which the inhibition at 11200 g/ha was in the range of 75 to 100% in assay [1]; 75 to 100% in assay [2]; 75 to 100% in [3]; 75 to 100% in assay [4]; 75 to 100% in assay [5]; 0 to 24% in assay [6]. Besides, the inhibition at 11200 g/ha in assay [7] lay in the range of 50 to 74%; in [8], 75 to 100%; in [9] it was 75 to 100%; in [10], 0 to 24%.
As to `COc1nc(C(F)(F)F)c(CO)c(CC(C)C)c1C(=O)SC` [Compound 134, 3-pyridinecarbothioic acid, 5-(hydroxymethyl)-2-methoxy-4-(2-methylpropyl)-6-(trifluoromethyl)-, S-methyl ester], the inhibition at 11200 g/ha in assay [1] fell in the range of 75 to 100%; in [2], 25 to 49%; in assay [3] it was 0 to 24%; in [4], 0 to 24%; in assay [5], 75 to 100%; in [6], 0 to 24%. For the same compound, the inhibition at 11200 g/ha in assay [7] was 0 to 24%; in assay [8], 0 to 24%; in assay [9], 50 to 74%; in assay [10] it was 0 to 24%.
`COC(=O)c1c(OC)nc(C(F)(F)F)c(C(=O)n2cc([N+](=O)[O-])cn2)c1CC(C)C` [Compound 101, 3-pyridinecarboxylic acid, 2-methoxy-4-(2-methylpropyl)-5-[(4-nitro-1H-pyrazo1-1-yl)carbonyl]-6-(trifluoromethyl)-, methyl ester]: the inhibition at 11200 g/ha in assay [1] fell in the range of 75 to 100%; in [2], 75 to 100%; in assay [3], 75 to 100%; in assay [4], 75 to 100%; in [5], 75 to 100%; in [6], 25 to 49%. Moreover, the inhibition at 11200 g/ha in assay [7] was in the range of 50 to 74%; in assay [8] it was 50 to 74%; in assay [9], 50 to 74%; in [10] it was 0 to 24%.
`COC(=O)c1c(OC)nc(C(F)(F)F)c(C(=O)NNC(C)=O)c1CC(C)C` [Compound 100, 3,5-pyridinedicarboxylic acid, 2-methoxy-4-(2-methylpropyl)-6-(trifluoromethyl)-, 3-methyl ester 5-(2-acetylhydrazide)]: the inhibition at 11200 g/ha lay in the range of 75 to 100% in [1]; 0 to 24% in assay [2]; 0 to 24% in [3]; 0 to 24% in [4]; 0 to 24% in assay [5]; 0 to 24% in [6]. Further, the inhibition at 11200 g/ha in [7], in assay [8], in [9] and in assay [10] was 0 to 24% throughout.
Consider `COC(=O)c1c(OC)nc(C(F)(F)F)c(C(N)=O)c1CC(C)C` [Compound 105, 3-pyridinecarboxylic acid, 5-(aminocarbonyl)-2-methoxy-4-(2-methylpropyl)-6-(trifluoromethyl)-, methyl ester], for which the inhibition at 11200 g/ha fell in the range of 75 to 100% in [1]; 0 to 24% in [2]; 75 to 100% in [3]; 25 to 49% in assay [4]; 75 to 100% in assay [5]; 0 to 24% in [6]. Besides, the inhibition at 11200 g/ha in [7], in [8], in assay [9] and in assay [10] was 0 to 24% each time.
